Data reported in patent publication US9402875B2, “Amidated dopamine neuron stimulating peptide restoration of mitochondrial activity” (University of Kentucky Research Foundation, priority 2006, dated 2016).
Ends that are not written are not given here.

Columns and labels:
Erk1/2 = assay: ERK1/2 activation by western blot; type: cell-based; details: DNSP-11 0.1 uM or 1 uM or GDNF 50 ng/ml for 20 minutes
Description: MN9D and B65 cell were cultured in DMEM; 11995 (containing pyridoxol HCl; Sigma, St. Louis, Mo.) supplemented with 10% fetal bovine serum (HyClone, Logan, Utah), 50 U/mL penicillin and streptomycin with DNSP-11 (0.1 uM or 1 uM) or GDNF (50 ng/ml) for 20 minutes. The cells were then solubilized in Triton-X-100/glycerol lysis buffer and subjected to electrophoresis and western blotting as partially described previously (Jiang et al., Mol Biol Cell 14:859-70 (2003)). To detect phosphorylated Erk (#4377 Cell Signaling) and ERK (#4696 Cell Signaling) by immunoblotting, the cells were directly lysed in the sample loading buffer. Secondary IRDye 700X and IRDye800 conjugated, fluorescent antibodies (Rockland Inc.) were used to detect signal with Odyssey v3.0 scanning software. Several blots were analyzed to determine the linear range of the fluorescence signals, and quantifications were performed using densitometry analysis.

[1] = system: mitochondrial-associated genes in the substantia nigra; assay: Gene array analysis (Affymetrix) of substantia nigra after DNSP-11; type: in vivo, rat; details: 48 h after bilateral 30 μg
Description: Changes in expression of mitochondrial-associated genes in the substantia nigra (SN) of three young adult (5 month old) male F344 rats 48 hours following bilateral intranigral injections of DNSP-11 into the substantial nigra was assessed as follows.
A 3 μg/μl DNSP-11 peptide solution was prepared in citrate buffer and filter sterilized. Stereotaxic injections were made of 30 μg DNSP-11 in 10 ul citrate buffer into the substantia nigra on each side of the brain. Controls received […] injections of vehicle. Forty-eight hours later, the animals were euthanized, the brains quickly recovered and sectioned so that the bilateral SN could be dissected out as one block of tissue and snap frozen in liquid nitrogen. RNA was extracted from the SN samples for gene array analysis, which was conducted on Affymetrix Version II chips. A gene chip was run for each of the six rats: three bilateral vehicle recipients, three bilateral 30 μg DNSP-11 recipients.

MN9D dopaminergic cells = assay: TUNEL assay, protection against 6-OHDA toxicity; type: cell-based; details: 1 ng/mL for 1 hour before 100 μM 6-OHDA for 15 min; at 24 h
Description: MN9D Cell Cultures: The MN9D cell line has been described by Choi (1991) Brain Res. 552:67-76 and was a gift from Michael Zigmond. Cells were cultured in DMEM supplemented with 10% Fetal Bovine Serum (FBS, Hyclone), 50 U/mL penicillin and streptomycin. For experiments, the cells were plated on 24-well poly-D-lysine in DMEM with 1% (v/v) penicillin-streptomycin. The cells were grown at 37° C. in 5% CO2.
Terminal dUTP Nick-End Labeling (TUNEL) Assay in MN9D Cells: After treatment with DNSP-11, MN9D cells were fixed and labelled to assess degenerative nuclear changes as indicated by the extent of high-molecular weight DNA strand breaks. DNA fragmentation was detected by using steptavidin-horseradish peroxidise conjugate followed by the substrate diaminobenzidine (DAB) generating a colored precipitate. Ratios between apoptotic and total cells were determined (4 random fields/well; 4 wells/ group). Experiments were repeated 3 times.
To evaluate DNSP-11's neuroprotective properties, DNSP-11 was compared to GDNF in its protection against 6-OHDA-induced toxicity in the dopaminergic cell line, MN9D. MN9D dopaminergic cells were incubated for 1 hour with either citrate buffer (control), 1 ng/mL of DNSP-11 or GDNF prior to 100 μM 6-OHDA exposure for 15 min. […]

[2] = system: normal young male Fischer 344 rats; assay: Striatal microdialysis 28 days after intranigral DNSP-11; type: in vivo, rat
Description: Infusion Delivery of DNSP-11 or Vehicle: Isoflurane anesthetized (1.5-2.5%) F344 rats received 5 μl of 6 μg/μL DNSP-11 solution or citrate buffer vehicle solution in a blinded manner. Treatment was delivered to the nigral cell bodies using the same stereotaxic coordinates and protocol for solution delivery as in studies of GDNF.
Reverse Microdialysis: Reverse in vivo microdialysis was accomplished using methods and brain coordinates described by Hebert et al. (1996)J Pharmacol. Exper. Ther. 279:1181-1190. CMA 11 microdialysis probes with a 4.0 mm membrane length and 6 kDa molecular weight cut-off were placed within the rat striatum.
Prior studies with GDNF have shown robust effects on both potassium and amphetamine-evoked release 28 days after a single injection into the rat substantia nigra (Hebert et al. (1997) J. Pharm. Exp. Thera. 282: 760) indicating the functional effects of this trophic factor on dopamine signaling in the normal rat striatum. In the present experiment, 30 μg of DNSP-11 was injected into the right substantia nigra of normal young male Fischer 344 rats. Twenty-eight days after injection, in vivo microdialysis was performed in these animals to investigate dopamine neurochemistry in the ipsilateral striatum. […] Winkler et al. (1996) J. Neurosci. 16: 7206; Hebert et al. (1996) J Pharmacol Exper Ther. 279: 1181-1190 (1996).

[3] = ipsilateral striatum, 28 days after 30 μg into right substantia nigra

Substance: PPEAPAEDRSL-NH2 [DNSP-11, PPEAPAEDRSL-amide]
- phosphorylation of Erk1/2 (ratio of phosphorylated to non-phosphorylated) (Erk1/2; B65 cells): increases significantly
- phosphorylation of Erk1/2 (ratio of phosphorylated to non-phosphorylated) (Erk1/2; MN9D cells): increases significantly
- APP FOLD CHANGE ([1]; vs control): −1.08
- BACEI FOLD CHANGE ([1]; vs control): −1.09
- CASP3 FOLD CHANGE ([1]; vs control): 1.18
- CASP8 FOLD CHANGE ([1]; vs control): 1.25
- CAT FOLD CHANGE ([1]; vs control): 1.09
- COX6A2 FOLD CHANGE ([1]; vs control): 1.75
- COX6B1 FOLD CHANGE ([1]; vs control): 1.04
- COX17 FOLD CHANGE ([1]; vs control): 1.11
- GLRX2 FOLD CHANGE ([1]; vs control): 1.09
- GPX7 FOLD CHANGE ([1]; vs control): 1.19
- MAOB FOLD CHANGE ([1]; vs control): 1.13
- MAP2K4 FOLD CHANGE ([1]; vs control): −1.12
- MAPK9 FOLD CHANGE ([1]; vs control): −1.21
- MAPK10 FOLD CHANGE ([1]; vs control): −1.08
- NDUFA7 FOLD CHANGE ([1]; vs control): 1.07
- PARK7 FOLD CHANGE ([1]; vs control): 1.02
- PRDX5 FOLD CHANGE ([1]; vs control): 1.13
- PSEN1 FOLD CHANGE ([1]; vs control): 1.16
- TXN2 FOLD CHANGE ([1]; vs control): 1.10
- CAT catalase expression level, PEPTIDE ([1]; P 0.015): 2828.2
- CASP8 caspase 8 expression level, PEPTIDE ([1]; control 178.1, P 0.006): 219.4
- GPX7 glutathione peroxidase 7 expression level, PEPTIDE ([1]; control 183.8, P 0.015): 194.2
- CASP3 caspase 3 expression level, PEPTIDE ([1]; control 367.5, P 0.024): 421.4
- BACEI beta-site APP-cleaving enzyme 1 expression level, PEPTIDE ([1]; control 510.6, P 0.016): 451.6
- COX6A2 cytochrome c oxidase subunit Via polypeptide2 expression level, PEPTIDE ([1]; control 520.6, P 0.014): 814.1
- MAPK10 mitogen-activated protein kinase 10 expression level, PEPTIDE ([1]; control 552.8, P 0.008): 505.0
- PSEN1 presenilin 1 expression level, PEPTIDE ([1]; control 563.2, P 0.022): 673.5
- MAPK9 mitogen-activated protein kinase 9 expression level, PEPTIDE ([1]; control 930.0, P 0.007): 770.7
- TXN2 thioredoxin 2 expression level, PEPTIDE ([1]; control 1378.5, P 0.010): 1511.9
- MAOB monoamine oxidase B expression level, PEPTIDE ([1]; control 1974.2, P 0.012): 2199.8
- COX17 cytochrome c oxidase assembly homolog expression level, PEPTIDE ([1]; control 2017.8, P 0.025): 2326.1
- MAP2K4 mitogen-activated protein kinase kinase 4 expression level, PEPTIDE ([1]; control 2744.4, P 0.043): 2422.4
- NDUFA7 NADH dehydrogenase (ubiquinone) 1 alpha subcomplex, 7 expression level, PEPTIDE ([1]; control 2943.0, P 0.046): 3125.4
- GLRX2 glutaredoxin 2 expression level, PEPTIDE ([1]; control 3472.2, P <0.001): 3618.7
- PRDX5 peroxiredoxin 5 expression level, PEPTIDE ([1]; control 4790.1, P 0.020): 5569.8
- PARK7 DJ-1 expression level, PEPTIDE ([1]; control 5159.4, P 0.032): 5299.2
- COX6B1 cytochrome c oxidase subunit Vib polypeptide 1 expression level, PEPTIDE ([1]; control 7536.6, P 0.044): 7869.7
- APP amyloid beta (A4) precursor protein expression level, PEPTIDE ([1]; control 10117.2, P 0.006): 9734.4
- percent of TUNEL positive cells (MN9D dopaminergic cells): significant reduction
- Basal DA ([2]; 28 days after delivery, vehicle 26.0±2.7 nM): 45.8 ± 7.7 nM
- Basal concentrations of HVA ([2]; 28 days after delivery, vehicle 2419±251 nM): 4.516 ± 0.502 µM
- Basal concentrations of DOPAC ([2]; 28 days after delivery, vehicle 3355±338 nM): 6.544 ± 0.836 µM
- resting levels of HVA, increase vs controls [2, 3]: over 100%
- resting levels of dopamine, increase vs controls [2, 3]: over 100%
